For series [1] the following is noted: Crystal; DTA.
A short description of series [2]: Molar enthalpy of transition or fusion. The settings on record: Crystal; DSC.

Numbers after ± are expanded uncertainties.

For the compound `CCCCC/C=C\C/C=C\CCCCCCCC(=O)O` [(Z,Z)-9,12-octadecadienoic acid], the Normal melting temperature in series [1] was -4.91 ± 0.58 °C. Besides, in series [2], the “Molar enthalpy of transition or fusion” value amounted to 8.15 ± 0.215 kcal/mol.
The corresponding values for `CCCCCCCCCCCCCCCCCC(=O)O` [octadecanoic acid] are 70.83 ± 0.61 °C and 15.4 ± 0.55 kcal/mol.
The like results for `CCCCCCCCCCCCCC(=O)O` [tetradecanoic acid] were, in that order, 54.53 ± 0.84 °C and 10.7 ± 0.406 kcal/mol.
